Measured values: US9328083B2, “2-aminated methylene or 2-esterified methylene tanshinone derivatives, and preparation method and application thereof” (HANGZHOU BENSHENG PHARMACEUTICAL CO., LTD., priority 2011, dated 2016)
Values after ≈ are worked out from the molar mass of the structure shown.

How the values were obtained:
[1] = tested on: H9 (acute lymphoblastic leukemia, ALL); assay: MTT growth inhibition of leukemia cells, 72 h; type: cell-based, human; settings: Homo sapiens, H9, 72 h; for IC50: read-out: IC50; for IC90: read-out: IC90
Description: (§1) Leukemia cell lines: leukemia cell lines: K562/adr (drug-resistant, chronic myeloid leukemia, CML), NB4 (acute promyelocytic leukemia, AML), Kasumi-1 (acute myeloid leukemia M2 type, AML-M2), and Jurkat (acute lymphoblastic leukemia, ALL), all of which are donated by Cancer Research Institute of Zhejiang University, China; and H9 (acute lymphoblastic leukemia, ALL), which is purchased from China Center for Type Culture Collection (CCTCC).
(§2) The standard sample of tanshinone I (TA) and the 2-aminated methylene or 2-esterified methylene tanshinone I derivatives of the present invention are sufficiently dissolved with dimethylsulfoxide to produce a stock solution of 10 mg/mL, which is refrigerated at 4° C. and stored in dark, and is diluted with a cell culture medium to the desired concentration prior to experimentation.
(§3) Obtaining 6000 well-growing leukemia cells and inoculating them into wells of a 96-well cell culture plate. The culture medium is the RPMI-1640 cell culture medium containing 10% fetal bovine serum. After adding on the second day the 2-aminated methylene or 2-esterified methylene tanshinone I derivatives of different concentrations and mixing uniformly, placing the plate in a carbon dioxide cell incubator (5% CO2) at 37° C. and incubated for 72 hours. Then the viable cell concentration is determined by MTT method.

[2] = tested on: Jurkat (acute lymphoblastic leukemia, ALL); assay: MTT growth inhibition of leukemia cells, 72 h; type: cell-based, human; settings: Homo sapiens, 72 h; for IC50: read-out: IC50; for IC90: read-out: IC90
Description: as §1, §2, §3

[3] = tested on: K562/adr (drug-resistant, chronic myeloid leukemia, CML); assay: MTT growth inhibition of leukemia cells, 72 h; type: cell-based, human; settings: Homo sapiens, K562/Adr; for IC50: read-out: IC50; for IC90: read-out: IC90
Description: as §1, §2, §3

[4] = tested on: Kasumi-1 (acute myeloid leukemia M2 type, AML-M2); assay: MTT growth inhibition of leukemia cells, 72 h; type: cell-based, human; settings: Homo sapiens, Kasumi-1, 72 h; for IC50: read-out: IC50; for IC90: read-out: IC90
Description: as §1, §2, §3

[5] = tested on: NB4 (acute promyelocytic leukemia, AML); assay: MTT growth inhibition of leukemia cells, 72 h; type: cell-based, human; settings: Homo sapiens, NB4, 72 h; for IC50: read-out: IC50; for IC90: read-out: IC90
Description: as §1, §2, §3

[6] = tested on: RPMI8226 (multiple myeloma); assay: MTT growth inhibition of multiple myeloma cells, 72 h; type: cell-based, human; settings: Homo sapiens, RPMI 8226, 72 h; for IC50: read-out: IC50; for IC90: read-out: IC90
Protocol: Myeloma cell lines: RPMI8226 (multiple myeloma), purchased from Fuxiang Bio-tech Co. Ltd., Shanghai, China.
as §2
as §3, with “myeloma” for “leukemia”, “cells as above” for “cells”, “1640” for “RPMI-1640”, “adding” for “adding on the second day”

A549 (human lung cancer) = assay: MTT growth inhibition of human solid tumor cells, 72 h; type: cell-based; settings: Homo sapiens, A549, 72 h; for IC50: read-out: IC50; for IC90: read-out: IC90
Protocol: (§4) Hep-2 (laryngeal carcinoma), A549 (human lung cancer), CaES-17 (esophageal cancer cell), PC-3 (prostate cancer), CNE (nasopharyngeal carcinoma cell), and SK-OV-3 (ovarian cancer cell), all of which are purchased from China Center For Type Culture Collection; RKO (human colon adenocarcinoma cell), MGC 803 (human gastric cancer cell), MG63 (osteosarcoma) and U87 MG (malignant glioma cell), all of which are purchased from Fuxiang Bio-tech Co. Ltd., Shanghai, China; PANC-1 (pancreatic cancer), Hep G2 (human liver cancer cell), Becap37 (human breast cancer cell) and Hela (human cervical cancer cell), all of which are donated by Cancer Research Institute of Zhejiang University, China.
as §2
(§5) Obtaining 4000 well-growing human solid tumor cells and inoculating them into wells of a 96-well cell culture plate. The culture medium is DMEM High Glucose cell culture medium containing 10% fetal bovine serum. The plate is placed in a carbon dioxide cell incubator (5% CO2) at 37° C. and incubated for 24 hours. After adding the 2-aminated methylene or 2-esterified methylene tanshinone I derivatives of different concentrations and mixing uniformly, the plate is placed in a carbon dioxide cell incubator (5% CO2) at 37° C. and incubated for 72 hours. Then the viable cell concentration is determined by the MTT method.

[7] = tested on: Becap37 (human breast cancer cell); assay: as above; type: cell-based; settings: Homo sapiens, Becap-37, 72 h; for IC50: read-out: IC50; for IC90: read-out: IC90
Protocol: as §4, §2, §5

[8] = tested on: CNE (nasopharyngeal carcinoma cell); assay: as above; type: cell-based; settings: Homo sapiens; for IC50: read-out: IC50; for IC90: read-out: IC90
Protocol: as §4, §2, §5

[9] = tested on: CaES-17 (esophageal cancer cell); assay: as above; type: cell-based; settings: Homo sapiens, CaEs17, CaEs-17, 72 h; for IC50: read-out: IC50; for IC90: read-out: IC90
Protocol: as §4, §2, §5

[10] = tested on: Hela (human cervical cancer cell); assay: as above; type: cell-based; settings: Homo sapiens, HeLa, 72 h; for IC50: read-out: IC50; for IC90: read-out: IC90
Protocol: as §4, §2, §5

[11] = tested on: Hep G2 (human liver cancer cell); assay: as above; type: cell-based; settings: Homo sapiens, HepG2, Hep G2, 72 h; for IC50: read-out: IC50; for IC90: read-out: IC90
Protocol: as §4, §2, §5

[12] = tested on: Hep-2 (laryngeal carcinoma); assay: as above; type: cell-based; settings: Homo sapiens, HEp-2, 72 h; for IC50: read-out: IC50; for IC90: read-out: IC90
Protocol: as §4, §2, §5

MG63 (osteosarcoma) = assay: as above; type: cell-based; settings: Homo sapiens, MG-63, 72 h; for IC50: read-out: IC50; for IC90: read-out: IC90
Protocol: as §4, §2, §5

[13] = tested on: MGC 803 (human gastric cancer cell); assay: as above; type: cell-based; settings: Homo sapiens, MGC-803, 72 h; for IC50: read-out: IC50; for IC90: read-out: IC90
Protocol: as §4, §2, §5

[14] = tested on: PANC-1 (pancreatic cancer); assay: as above; type: cell-based; settings: Homo sapiens, PANC-1, 72 h; for IC50: read-out: IC50; for IC90: read-out: IC90
Protocol: as §4, §2, §5

PC-3 (prostate cancer) = assay: as above; type: cell-based; settings: Homo sapiens, PC-3, 72 h; for IC50: read-out: IC50; for IC90: read-out: IC90
Protocol: as §4, §2, §5

[15] = tested on: RKO (human colon adenocarcinoma cell); assay: as above; type: cell-based; settings: Homo sapiens; for IC50: read-out: IC50; for IC90: read-out: IC90
Protocol: as §4, §2, §5

[16] = tested on: SK-OV-3 (ovarian cancer cell); assay: as above; type: cell-based; settings: Homo sapiens, SK-OV-3, 72 h; for IC50: read-out: IC50; for IC90: read-out: IC90
Protocol: as §4, §2, §5

[17] = tested on: U87 MG (malignant glioma cell); assay: as above; type: cell-based; settings: Homo sapiens, U-87 MG, U87-MG, 72 h; for IC50: read-out: IC50; for IC90: read-out: IC90
Protocol: as §4, §2, §5

IC50 [1]	IC90 [1]	IC50 [2]	IC90 [2]	IC50 [3]	IC90 [3]	IC50 [4]	IC90 [4]	IC50 [5]	IC90 [5]	IC50 [6]	IC90 [6]	IC50 (A549 (human lung cancer))	IC90 (A549 (human lung cancer))	IC50 [7]	IC90 [7]	IC50 [8]	IC90 [8]	IC50 [9]	IC90 [9]	SMILES	also measured
0.45 µg/mL (≈ 0.864 µM)	1.6 µg/mL (≈ 3.07 µM)	0.31 µg/mL (≈ 0.595 µM)	0.99 µg/mL (≈ 1.9 µM)	1.5 µg/mL (≈ 2.88 µM)	2 µg/mL (≈ 3.84 µM)	0.28 µg/mL (≈ 0.538 µM)	0.47 µg/mL (≈ 0.903 µM)	0.35 µg/mL (≈ 0.672 µM)	0.71 µg/mL (≈ 1.36 µM)	0.12 µg/mL (≈ 0.231 µM)	0.87 µg/mL (≈ 1.67 µM)	1.07 µg/mL (≈ 2.06 µM)	3.7 µg/mL (≈ 7.11 µM)	1.02 µg/mL (≈ 1.96 µM)	1.94 µg/mL (≈ 3.73 µM)	2.02 µg/mL (≈ 3.88 µM)	3.61 µg/mL (≈ 6.93 µM)	1.84 µg/mL (≈ 3.53 µM)	3.98 µg/mL (≈ 7.65 µM)	Cc1c(CN(C)CCOC(=O)CNC(=O)OC(C)(C)C)oc2c1C(=O)C(=O)c1c-2ccc2c(C)cccc12 [BS-TA-72]	IC50 [10]: 0.89 µg/mL (≈ 1.71 µM); IC90 [10]: 1.84 µg/mL (≈ 3.53 µM); IC50 [11]: 0.71 µg/mL (≈ 1.36 µM); IC90 [11]: 3.85 µg/mL (≈ 7.4 µM); IC50 [12]: 1.59 µg/mL (≈ 3.05 µM); IC90 [12]: 3.77 µg/mL (≈ 7.24 µM); IC50 (MG63 (osteosarcoma)): 1.08 µg/mL (≈ 2.07 µM); IC90 (MG63 (osteosarcoma)): 2.56 µg/mL (≈ 4.92 µM); IC50 [13]: 1.5 µg/mL (≈ 2.88 µM); IC90 [13]: 9.94 µg/mL (≈ 19.1 µM); IC50 [14]: 0.75 µg/mL (≈ 1.44 µM); IC90 [14]: 8.96 µg/mL (≈ 17.2 µM); IC50 (PC-3 (prostate cancer)): 1.68 µg/mL (≈ 3.23 µM); IC90 (PC-3 (prostate cancer)): 9.92 µg/mL (≈ 19.1 µM); IC50 [15]: 0.25 µg/mL (≈ 0.48 µM); IC90 [15]: 2.38 µg/mL (≈ 4.57 µM); IC50 [16]: 5.91 µg/mL (≈ 11.4 µM); IC90 [16]: 10.9 µg/mL (≈ 21 µM); IC50 [17]: 1.46 µg/mL (≈ 2.8 µM); IC90 [17]: 3.65 µg/mL (≈ 7.01 µM)
0.19 µg/mL (≈ 0.41 µM)	0.97 µg/mL (≈ 2.09 µM)	0.98 µg/mL (≈ 2.11 µM)	3.4 µg/mL (≈ 7.34 µM)	1.38 µg/mL (≈ 2.98 µM)	2.74 µg/mL (≈ 5.91 µM)	0.27 µg/mL (≈ 0.583 µM)	0.73 µg/mL (≈ 1.58 µM)	0.21 µg/mL (≈ 0.453 µM)	0.68 µg/mL (≈ 1.47 µM)	0.38 µg/mL (≈ 0.82 µM)	1.55 µg/mL (≈ 3.34 µM)	1.72 µg/mL (≈ 3.71 µM)	4.79 µg/mL (≈ 10.3 µM)	1.06 µg/mL (≈ 2.29 µM)	1.91 µg/mL (≈ 4.12 µM)	1.38 µg/mL (≈ 2.98 µM)	3.7 µg/mL (≈ 7.98 µM)	1.14 µg/mL (≈ 2.46 µM)	1.86 µg/mL (≈ 4.01 µM)	Cc1c(CN(C)CCOC(=O)CCC(=O)O)oc2c1C(=O)C(=O)c1c-2ccc2c(C)cccc12 [BS-TA-73]	IC50 [10]: 1 µg/mL (≈ 2.16 µM); IC90 [10]: 3.81 µg/mL (≈ 8.22 µM); IC50 [11]: 1.39 µg/mL (≈ 3 µM); IC90 [11]: 4.64 µg/mL (≈ 10 µM); IC50 [12]: 0.81 µg/mL (≈ 1.75 µM); IC90 [12]: 3.21 µg/mL (≈ 6.93 µM); IC50 (MG63 (osteosarcoma)): 1.01 µg/mL (≈ 2.18 µM); IC90 (MG63 (osteosarcoma)): 3.71 µg/mL (≈ 8 µM); IC50 [13]: 0.84 µg/mL (≈ 1.81 µM); IC90 [13]: 4.9 µg/mL (≈ 10.6 µM); IC50 [14]: 1.07 µg/mL (≈ 2.31 µM); IC90 [14]: 5 µg/mL (≈ 10.8 µM); IC50 (PC-3 (prostate cancer)): 1.73 µg/mL (≈ 3.73 µM); IC90 (PC-3 (prostate cancer)): 7.04 µg/mL (≈ 15.2 µM); IC50 [15]: 0.2 µg/mL (≈ 0.432 µM); IC90 [15]: 0.87 µg/mL (≈ 1.88 µM); IC50 [16]: 3.54 µg/mL (≈ 7.64 µM); IC90 [16]: 7.27 µg/mL (≈ 15.7 µM); IC50 [17]: 1.19 µg/mL (≈ 2.57 µM); IC90 [17]: 3.44 µg/mL (≈ 7.42 µM)
